Data taken from patent US9834535B2, “Sulfamate derivative compounds for use in treating or alleviating pain” (Bio-Pharm Solutions Co., Ltd., priority 2013, dated 2017).

Key:
CFA-induced pain model = experiment: Antiallodynic activity on Complete Freund's Adjuvant (CFA)-induced inflammatory pain model (von Frey); format: in vivo, Sprague-Dawley rats; conditions: rat, intraperitoneal; for response vs control in vivo at 18 mg/kg / response vs control in vivo at 40 mg/kg / response vs control in vivo at 60 mg/kg: Rattus norvegicus, read-out: CFA model: effect (%) at the concentration administered
Procedure: Male, Sprague-Dawley rats (200-220 g, Nara Bio, Korea) were habituated for 1 week before surgery and allowed free access to food and water throughout the experimentation. Room temperature and humidity were maintained at 24±2° C. and 50±10%, respectively.
CFA-induced inflammatory pain was induced by the procedure of Nagakura et al. (2003) and Gregory P. et al. (2010) with minor modifications. CFA (sigma, USA) was injected in the left plantar with a 100 ul volume under gaseous anesthesia with isoflurane a 4:4 flow ratio of NO2 Sham controls were injected with 100 ul of saline and vehicle controls were identical to CFA infusion model, except for administration of vehicles.
(§1) Tactile sensitivity (Mechanical allodynia) was evaluated using von Frey monofilaments before and after treatment, and animals were used withdrawal threshold value was less than 4 g. One week after surgery, CFA-infused animals (n=4˜6), sham-operated animals (n=12), and vehicle-operated animals (n=17) were tested for tactile sensitivity with von Frey monofilaments 3 trials in each animal. All Animals were placed in a stainless steel mashed chamber and habituated for 30 min in the test box. The tactile sensitivity for ipsilateral hind paw was measured using the up-and-down method (Dixon, 1980) with seven von Frey monofilaments (0.4, 1, 2, 4, 6, 8, and 15 g) to 3 trials. Tactile sensitivity test was followed by Dixon's method (Dixon, 1980). The 50% paw withdrawal threshold for each paw was calculated using the following formula: [Xth] log=[vFr] log+ky where [vFr] is the force of the last von Frey used, k=0.2249 which is the average interval (in log units) between the von Frey monofilaments, and y is a value that depends upon the pattern of withdrawal responses (Dixon, 1980).
[…] The test was performed peak time of efficacy (0.5 hr) after compound administration.
The relative values compared to the sham (% control) were calculated and shown in Table 4, which show an antiallodynic effect of the compound of Examples on CFA-induced pain model in rats.

SNL model = experiment: Antiallodynic activity on Chung model (SNL, spinal nerve ligation; von Frey); format: in vivo, Sprague-Dawley rats; conditions: 0.5 h, rat, oral, read-out: SNL model: effect (%) at the concentration administered
Procedure: Male. Sprague-Dawley rats (200-220 g, Orient Bio, Korea) were habituated for 1 week before the experiment and allowed free access to food and water throughout the experimentation. Room temperature and humidity were maintained at 24±2° C. and 50±10%, respectively. Neuropathic surgery (SNL, Spinal nerve ligation) model was clone as described in Kim and Chung (1992). Briefly, animal under gaseous anesthesia with isoflurane a 4:4 flow ratio of NO2. The left lumber spinal nerve L5 and L6 were isolated and tightly ligated with 4-0 silk thread. The wound was treated with a gentamicin antibiotics solution (4 mg/kg, 4 ul/g, bw), and the wound muscle was closed with cat cut chrom 4/0 thread and skin was closed dafilon 4/0 tread. Sham controls were prepared in the same manner as the spinal nerves were exposed, but no ligated L5 and L6 nerves. But, vehicle controls were identical to SNL model, except for administration of vehicles.
as §1, with “treatment” for “treatment,”, “SNL-operated” for “CFA-infused”, “(n=4˜10)” for “(n=12),”, “(n=4˜13)” for “(n=17)”
All animals were fasted 18 h before the administration of the compounds. The antiallodynic effect of the compounds were evaluated at the various dose (n=5˜6), orally administrated in a volume of 5 ul/g, bw in a vehicle of 30% (v/v) PEG 400 or 20% (v/v) Tween 80 or Saline. […]
The relative values compared to the sham group (% control) were calculated and shown in Table 5, which show an antiallodynic effect of the test compounds on SNL model in rats.

Row | SMILES | response vs control in vivo at 40 mg/kg (CFA-induced pain model; ip, 0.5 h, 0.5 h) [%] | response vs control in vivo at 60 mg/kg (CFA-induced pain model; ip, 0.5 h, 0.5 h) [%] | other results
1 | CC1(C)O[C@H](c2ccccc2I)[C@@H](COS(N)(=O)=O)O1 [Example 27, ((4R,5R)-5-(2-iodophenyl)-2,2-dimethyl-1,3-dioxolan-4-yl)methyl sulfamate] | – | – | response vs control in vivo at 18 mg/kg (CFA-induced pain model; ip, 0.5 h, 0.5 h): 20.2%; response vs control in vivo at 50 mg/kg (SNL model): 17.3%
2 | Nc1ccccc1[C@@H]1OC2(CCCC2)O[C@H]1COS(N)(=O)=O [Example 72, ((2S,3S)-3-(2-aminophenyl)-1,4-dioxaspiro[4,4]nonan-2-yl)methyl sulfamate] | 22.6 | – | response vs control in vivo at 50 mg/kg (SNL model): 35.1%
3 | Nc1ccccc1[C@@H]1OC(c2ccccc2)O[C@H]1COS(N)(=O)=O (stereo partly drawn) [Example 76, ((4S,5S)-5-(2-aminophenyl)-2-phenyl-1,3-dioxolan-4-yl)methyl sulfamate] | 25.7 | – | response vs control in vivo at 90 mg/kg (SNL model): 22.9%
4 | Cc1ccccc1[C@@H]1OC(C)(C)O[C@H]1COS(N)(=O)=O [Example 92, ((4S,5S)-5-(2-methylphenyl)-2,2-dimethyl-1,3-dioxolan-4-yl)methyl sulfamate] | – | – | response vs control in vivo at 18 mg/kg (CFA-induced pain model; ip, 0.5 h, 0.5 h): 22.3%; response vs control in vivo at 50 mg/kg (SNL model): 37.3%
5 | CC1(C)O[C@@H](COS(N)(=O)=O)[C@H](c2ccccc2)O1 [Example 106, ((4S,5S)-5-phenyl-2,2-dimethyl-1,3-dioxolan-4-yl)methyl sulfamate] | – | – | response vs control in vivo at 18 mg/kg (CFA-induced pain model; ip, 0.5 h, 0.5 h): 23.2%; response vs control in vivo at 50 mg/kg (SNL model): 25.4%
6 | NS(=O)(=O)OCC[C@H]1OC2(CCCC2)O[C@@H]1Cc1ccccc1 [Example 118, 2-((2R,3R)-3-benzyl-1,4-dioxaspiro[4,4]nonan-2-yl)ethyl sulfamate] | 25 | – | response vs control in vivo at 90 mg/kg (SNL model): 38.3%
7 | CC1(C)O[C@H](COS(N)(=O)=O)[C@@H](Cc2ccccc2)O1 [Example 122, ((4R,5R)-5-benzyl-2,2-dimethyl-1,3-dioxolan-4-yl)methyl sulfamate] | – | – | response vs control in vivo at 18 mg/kg (CFA-induced pain model; ip, 0.5 h, 0.5 h): 22.3%; response vs control in vivo at 50 mg/kg (SNL model): 64.1%
8 | CC1(C)O[C@H](CCOS(N)(=O)=O)[C@@H](Cc2ccccc2Cl)O1 [Example 138, 2-((4R,5R)-5-(2-chlorobenzyl)-2,2-dimethyl-1,3-dioxolan-4-yl)ethyl sulfamate] | 32.7 | – | response vs control in vivo at 90 mg/kg (SNL model): 71.4%
9 | CC1(C)O[C@H](COS(N)(=O)=O)[C@@H](Cc2ccccc2Cl)O1 [Example 146, ((4R,5R)-5-(2-chlorobenzyl)-2,2-dimethyl-1,3-dioxolan-4-yl)methyl sulfamate] | 16.5 | – | response vs control in vivo at 90 mg/kg (SNL model): 45.8%
10 | NS(=O)(=O)OCC[C@@H]1OC2(CCCC2)O[C@H]1c1ccccc1Cl [Example 158, 2-((2S,3S)-3-(2-chlorophenyl)-1.4-dioxaspiro[4,4]nonan-2-yl)ethyl sulfamate] | 29.8 | – | –
11 | NS(=O)(=O)OCC[C@@H]1OC2(CCCCC2)O[C@H]1c1ccccc1Cl [Example 160, 2-((2S,3S)-3-(2-chlorophenyl)-1,4-dioxaspiro[4,5]decan-2-yl)ethyl sulfamate] | 38.4 | – | –
12 | CC1(C)O[C@H](c2sc(Cl)nc2Cl)[C@@H](COS(N)(=O)=O)O1 [Example 163, ((4R,5S)-5-(2,4-dichlorothiazol-5-yl)-2,2-dimethyl-1,3-dioxolan-4-yl)methyl sulfamate] | 23.1 | – | –
13 | CC1(C)O[C@@H](COS(N)(=O)=O)[C@H](c2sc(Cl)nc2Cl)O1 [Example 164, ((4S,5R)-5-(2,4 dichlorothiazol-5-yl)-2,2-dimethyl-1,3-dioxolan-4-yl)methyl sulfamate] | – | 66.8 | –
14 | CC1(C)O[C@H](c2cnc(Cl)s2)[C@@H](COS(N)(=O)=O)O1 [Example 165, ((4R,5S)-5-(2-chlorothiazol-5-yl)-2,2-dimethyl-1,3-dioxolan-4-yl)methyl sulfamate] | – | – | ED50 (CFA-induced pain model; ip, von Frey, 0.5 h): > 60 mg/kg; CFA model: adverse observation (CFA-induced pain model; noted with ED50 >60 mg/kg): Seizure
15 | Cc1ncsc1[C@H]1OC(C)(C)O[C@@H]1COS(N)(=O)=O [Example 167, ((4R,5S)-2,2-dimethyl-5-(4-methylthiazol-5-yl)-1,3-dioxolan-4-yl)methyl sulfamate] | – | 38.6 | –
16 | Cc1ncsc1[C@@H]1OC(C)(C)O[C@H]1COS(N)(=O)=O [Example 168, ((4S,5R)-2,2-dimethyl-5-(4-methylthiazol-5-yl)-1,3-dioxolan-4-yl)methyl sulfamate] | – | 77.2 | –
17 | Cc1nc(Cl)sc1[C@@H]1OC(C)(C)O[C@H]1COS(N)(=O)=O [Example 170, ((4S,5R)-2,2-dimethyl-5-(2-chloro-4-methylthiazol-5-yl)-1,3-dioxolan-4-yl)methyl sulfamate] | – | 24.2 | –
18 | CC1(C)O[C@@H](COS(N)(=O)=O)[C@H](c2ccsc2)O1 [Example 171, ((4S,5S)-2,2-dimethyl-5-(thiophen-3-yl)-1,3-dioxolan-4-yl)methyl sulfamate] | – | 29.8 | –
19 | CC1(C)O[C@@H](COS(N)(=O)=O)[C@H](c2ccc(Cl)s2)O1 [Example 172, ((4S,5R)-2,2-dimethyl-5-(5-chlorothiophen-2-yl)-1,3-dioxolan-4-yl)methyl sulfamate] | – | 35.9 | –
20 | CC1(C)OC(COS(N)(=O)=O)C(c2ccncc2Cl)O1 (stereo not drawn) [Example 173, (5-(3-chloropyridin-4-yl)-2,2-dimethyl-1,3-dioxolan-4-yl)methyl sulfamate] | – | 33.9 | –
21 | CC1(C)OC(COS(N)(=O)=O)C(c2cnccc2Cl)O1 (stereo not drawn) [Example 174, (5-(4-chloropyridin-3-yl)-2,2-dimethyl-1,3-dioxolan-4-yl)methyl sulfamate] | – | 24.7 | –
22 | CC1(C)OC(COS(N)(=O)=O)C(c2cncnc2)O1 (stereo not drawn) [Example 175, 2,2-dimethyl-5-(pyrimidin-5-yl)-1,3-dioxolan-4-yl)methyl sulfamate] | – | 44.4 | –
23 | CC1(C)OC(COS(N)(=O)=O)C(c2cnc(Cl)nc2)O1 (stereo not drawn) [Example 176, (2,2-dimethyl-5-(2-chloropyrimidin-5-yl)-1,3-dioxolan-4-yl)methyl sulfamate] | – | 40 | –
